Test results published in patent publication US12064513B2, “Cationic lipid exhibiting improved intracellular dynamics” (NOF CORPORATION, priority 2018, dated 2024).

Test: Measurement of Liposomal pKa with TNS, empty LNP (Experimental Example 11)
Type: physicochemical
Settings: cationic lipid:DOPC:Chol:DMG-PEG2k=52.5:7.5:40:1.5
Procedure: 20 mM Citrate buffer, sodium phosphate buffer and tris HCl buffer each containing NaCl at a final concentration of 150 mM and adjusted to various pHs within the range of pH 3.0-10.0 were prepared. LNP prepared in [Experimental Example 3], 1, was diluted with PBS to a lipid concentration of 0.5 mM. TNS (manufactured by Sigma) was diluted with ultrapure water to 0.6 mM. TNS solution (2 μL), various LNP solutions (12 μL), and buffers adjusted to various pHs (186 μL) were added to a black 96 well plate. The plate was protected from light and shaken at 400 rpm for 10 min. The fluorescence intensity (excitation: 321 nm/emission: 447 nm) was measured using a plate reader (manufactured by TECAN). The relative fluorescence intensity was calculated as a percentage, with the maximum value of the fluorescence intensity in each LNP being 100% and the minimum value being 0%. Furthermore, the pH at which the relative fluorescence intensity was 50% was taken as Liposomal pKa.
For the evaluation of Liposomal pKa, empty LNP not encapsulating nucleic acid was used. The empty LNP (cationic lipid:DOPC:Chol:DMG-PEG2k=52.5:7.5:40:1.5) was produced by performing particle preparation in the method described in [Experimental Example 10] without using a nucleic acid.
Liposomal pKa was calculated by the method described in [Experimental Example 3].

SMILES: CCCCCCCC/C=C\CCCCCCCC(=O)Oc1ccc(CC(=O)NCCC2CCN(CCSSCCN3CCC(CCNC(=O)Cc4ccc(OC(=O)CCCCCCC/C=C\CCCCCCCC)cc4)CC3)CC2)cc1 [O-Ph-amide-P4C2]
- Liposomal pKa: improved pKa
